For assay [1], the species on record is Gallus gallus. Description: Antiangiogenic activity in chicken embryo chorioallantoic membrane assay, at 10 ug/CAM was determined. It counts as functional, tissue-based.
Another assay is filed under the species Rattus norvegicus. Description: Salt concentration required for release from the heparin-agarose column was evaluated to determine the heparin- binding activity to inhibit the growth of rat lung endothelial(RLE) cells.
Assay [2] is filed under the species Gallus gallus. Description: Antiangiogenic activity in chicken embryo chorioallantoic membrane assay, at 100 ug/CAM was determined. The format is functional, tissue-based.

SMILES strings stand for the structures.

The term inhibition denotes how much of the control response was suppressed. A higher inhibition goes with a response far below the control.

Consider `N=C(N)NCCCC(N)C(=O)NC(CCCNC(=N)N)C(=O)NCCCCC(NC(=O)C(CCCNC(=N)N)NC(=O)C(N)CCCNC(=N)N)C(=O)NCCCCC(NC(=O)C(CCCCNC(=O)C(CCCNC(=N)N)NC(=O)C(N)CCCNC(=N)N)NC(=O)C(CCCNC(=N)N)NC(=O)C(N)CCCNC(=N)N)C(=O)NCCCC(NC(=O)NCC(=O)O)NC(=O)C(CCCCNC(=O)C(CCCCNC(=O)C(CCCNC(=N)N)NC(=O)C(N)CCCNC(=N)N)NC(=O)C(CCCNC(=N)N)NC(=O)C(N)CCCNC(=N)N)NC(=O)C(CCCCNC(=O)C(CCCNC(=N)N)NC(=O)C(N)CCCNC(=N)N)NC(=O)C(CCCNC(=N)N)NC(=O)C(N)CCCNC(=N)N` (stereo not drawn), for which the inhibition worked out at 45.4% in the assay listed under Gallus gallus [1] and 70% in the assay listed under Gallus gallus [2]. In addition, the NaCl concentration in the assay listed under Rattus norvegicus was found to be 1.2 M.

(Values after ChEMBL document CHEMBL1135252, “Design and synthesis of antiangiogenic/heparin-binding arginine dendrimer mimicking the surface of endostatin” (Bioorg Med Chem Lett, 2002).)
